Test results reported in the NIST ThermoML archive (doi:10.1016/j.jct.2012.02.036).

Experiment: xn = mol fraction of the nth substance listed
Conditions: 101 kPa, Liquid; for mass density: Vibrating tube method

NCCCO [3-amino-1-propanol] + CC(C)CO
Conditions | mass density, 293.15 K [kg/m3] | mass density, 303.15 K [kg/m3] | mass density, 313.15 K [kg/m3] | mass density, 323.15 K [kg/m3] | mass density, 333.15 K [kg/m3] | viscosity, 293.15 K [mPa·s] | viscosity, 303.15 K [mPa·s] | viscosity, 313.15 K [mPa·s] | viscosity, 323.15 K [mPa·s] | viscosity, 333.15 K [mPa·s]
x1 = 0.1037 | 819.8 | 811.99 | 804.06 | 795.93 | 787.58 | 5.051 | 3.521 | 2.443 | 1.637 | 1.025
x1 = 0.2007 | 837.1 | 829.27 | 821.32 | 813.22 | 804.93 | 6.346 | 4.093 | 3.059 | 2.113 | 1.408
x1 = 0.3006 | 854.9 | 847.02 | 839.04 | 830.95 | 822.7 | 8.282 | 5.473 | 3.688 | 2.534 | 1.699
x1 = 0.4002 | 873.2 | 865.25 | 857.25 | 849.16 | 840.94 | 10.89 | 6.995 | 4.658 | 3.177 | 2.155
x1 = 0.501 | 891.9 | 883.89 | 875.86 | 867.78 | 859.58 | 13.95 | 8.794 | 5.767 | 3.903 | 2.693
x1 = 0.6007 | 910.4 | 902.41 | 894.47 | 886.34 | 878.16 | 17.71 | 10.85 | 7.048 | 4.73 | 3.251
x1 = 0.7008 | 929.5 | 921.49 | 913.45 | 905.35 | 897.17 | 21.85 | 13.33 | 8.496 | 5.666 | 3.88
x1 = 0.8005 | 948.6 | 940.49 | 932.36 | 924.27 | 916.24 | 27.18 | 16.12 | 10.09 | 6.695 | 4.573
x1 = 0.9005 | – | 960.24 | 952.19 | 944.09 | 935.93 | 33.2 | 19.47 | 12.19 | 8.029 | 5.424
x1 = 1 | 987.55 | 979.53 | 971.47 | 963.37 | 955.22 | 40.45 | 23.98 | 15.31 | 10.22 | 6.961

NCCCO [3-amino-1-propanol] + CC(C)O
Conditions | mass density, 293.15 K [kg/m3] | mass density, 303.15 K [kg/m3] | mass density, 313.15 K [kg/m3] | mass density, 323.15 K [kg/m3] | mass density, 333.15 K [kg/m3] | viscosity, 293.15 K [mPa·s] | viscosity, 303.15 K [mPa·s] | viscosity, 313.15 K [mPa·s] | viscosity, 323.15 K [mPa·s] | viscosity, 333.15 K [mPa·s]
x1 = 0.1006 | 807.84 | 799.47 | 790.86 | 781.97 | 772.74 | 3.076 | 2.069 | 1.334 | 0.761 | –
x1 = 0.2004 | 830.07 | 821.75 | 813.25 | 804.55 | 795.57 | 4.223 | 2.918 | 1.964 | 1.278 | 0.734
x1 = 0.3 | 851.78 | 843.5 | 835.07 | 826.48 | 817.69 | 5.489 | 3.955 | 2.745 | 1.879 | 1.203
x1 = 0.4007 | 873.12 | 864.86 | 856.49 | 848 | 839.34 | 7.957 | 5.363 | 3.704 | 2.559 | 1.75
x1 = 0.5003 | 894.23 | 885.99 | 877.67 | 869.25 | 860.69 | 11.01 | 7.213 | 4.931 | 3.402 | 2.367
x1 = 0.6 | 914.21 | 906 | 897.72 | 889.36 | 880.9 | 14.58 | 9.397 | 6.266 | 4.356 | 3.063
x1 = 0.7002 | 933.43 | 925.29 | 916.99 | 908.67 | 900.35 | 19.25 | 12.09 | 8.058 | 5.497 | 3.88
x1 = 0.8003 | 952.3 | 944.26 | 935.98 | 927.76 | 919.55 | 25.27 | 15.62 | 10.17 | 6.895 | 4.842
x1 = 0.9001 | 970.56 | 962.49 | 954.37 | 946.21 | 937.99 | 32.08 | 19.5 | 12.46 | 8.337 | 5.894
x1 = 1 | 987.65 | 979.65 | 971.61 | 963.52 | 955.38 | 40.46 | 23.98 | 15.31 | 10.22 | 6.962
